Assay results published in patent US20070254955A1, “Nail softener for use in deformed-nail corrective treatment or nail-structure modification, enclosure for external chemicals and method of correcting deformed nail” (priority 2003, published 2007).

Tests used:
[1] = tested on: ingrown nail; experiment: Deformed-nail corrective treatment with nail softener (First Example, sufficiently grown ingrown nail); format: in vivo; conditions: nail repositioned by fingertips, immobilized with resin for one hour; FIG. 4
Excerpt: With reference to the drawings, a deformed-nail correcting method using the nail softener according to one embodiment of the present invention will be described below. The cases of ingrown nails include one case of a sufficiently grown nail, and another case of a deep nail. While the deformed-nail correcting method using the nail softener of the present invention can be applied to both the cases, the first example will be described in conjunction with one case where the method is applied to a sufficiently grown nail. An emulsifying agent was first added to ammonium thioglycolate serving as a reducing agent to prepare a 5% (weight %) ammonium thioglycolate mail softener in the form of cream or paste. […] The number of the small through-hole may be changed according to the state of the nail, and may be, for example, two. The prepared nail softener was applied onto the entire surface of the nail at a thickness of about 5 mm, and left the nail untouched. After 25 minutes from the application of the nail softener to the nail, the state of the nail was checked. […] Thus, the nail softener was washed away and removed from the nail using a hot water. […] In order to maintain the corrected position, a resin 12 was attached onto the upper surface of the nail to close the small through-holes 10 formed in the front region of the nail (see FIG. 3). […]

[2] = tested on: ingrown nail; experiment: Ingrown-nail correction with nail softener in enclosure plus superelastic alloy wire (Second Example, deep nail); format: in vivo; conditions: reposition by action of superelastic alloy wire
Excerpt: With reference to the drawings, an ingrown-nail correcting method using the enclosure according to one embodiment of the present invention will be described below. As mentioned above, the cases of ingrown nails include one case of a sufficiently grown nail, and another case of a deep nail. While the deformed-nail correcting method using the enclosure of the present invention can be applied to both the cases, the second example will be described in conjunction with one case where the method is applied to a deep nail. An emulsifying agent was first added to ammonium thioglycolate serving as a reducing agent to prepare a 5% (weight %) ammonium thioglycolate mail softener in the form of cream or paste. […] The through-hole P1c was formed to fix one of the ends of a superelastic alloy wire w (see the aforementioned Patent Publication). Further, four small holes P2 serving as anchoring holes of resin r for fixing the other end of the wire were formed in the other lateral side region n2 of the nail. One of the ends of the wire w is inserted into the central through-hole p1c. Then, the wire w was folded toward the other side region n2 or a flat region, and brought into close contact with the surface of the nail. A resin r was applied onto the curved region n1 to fix one end of the wire w. An ultra-fast cure type autopolymerizing resin (GC Unifast II: trade name of GC Co.) was used as the resin. […]

O=C(O)CS [thioglycolic acid]
result of the corrective treatment (correction of the deformed nail) [1]: substantially the same result
result of the corrective treatment (reposition of the ingrown nail) [2]: substantially the same result

N[C@@H](CS)C(=O)O [cysteine]
result of the corrective treatment (correction of the deformed nail) [1]: substantially the same result
result of the corrective treatment (reposition of the ingrown nail) [2]: substantially the same result
